According to patent US12286418B2, “Compounds and methods for treating or preventing bacterial infections” (priority 2019, dated 2025):

Legend:
OXA-58 = biological target: T1, OXA-58 (Acinetobacter baumannii, UniProt Q2TR58); experiment: Inhibition of other OXA enzymes (nitrocefin reporter): OXA-58; format: biochemical
T1 construct: His-tag (N, cleaved yes); made in house; host or cells: E. coli BL21 (DE3), pET28a
Description: (§1) Compounds were tested for inhibition of a given OXA enzyme from hydrolyzing nitrocefin using a Tecan plate reader. […] A control with no compound was included in each run. For each compound concentration, the velocity of nitrocefin hydrolysis was determined at 482 nm and fit to the Morrison equation. […] The average Ki of separate experiments, each of which consisted of duplicate runs, is reported and error was quantified as the standard deviation.
The high sequence diversity of class D β-lactamases has made it difficult to find a class-wide inhibitor. The inhibition activity of CDD-97 was tested against other OXA-enzymes of varying sequence identity, to assess its spectrum of activity (Table 2). OXA-10 is regarded as the canonical OXA, however it is not a major clinical threat as it mainly hydrolyzes penicillins. OXA-58 is another carbapenemase unable to hydrolyze extended-spectrum cephalosporins like OXA-48. Both OXA-48 and OXA-58 are predominantly found in gram-negative bacteria, however OXA-48 is prevalent in the Enterobacteriaceae family (mainly Klebsiella pneumoniae), while OXA-58 is found in the Moraxellaceae family (mainly Acintobacter baumannii). While K. pneumoniae is more rampant in the clinics and most OXA-mediated carbapenem is due to OXA-48, A. baumannii nosocomial infections are a growing issue. OXA-163 is an OXA-48 like enzyme also prevalent in Enterobacteriaceae. […]

OXA-48 = OXA-48 (Klebsiella pneumoniae, UniProt Q6XEC0); experiment: OXA-48 inhibition assay using nitrocefin as reporter; format: biochemical; design: His-tag (N, cleaved yes); made in house; host or cells: E. coli BL21(DE3), pET28a
Description: Nitrocefin, a chromogenic β-lactam substrate, was used as a reporter in all inhibition assays with the various OXA enzymes and various compounds. Nitrocefin is not stable in aqueous solution long-term. For these assays, nitrocefin stocks were prepared in DMSO, stored at −20° C. and used within 2 weeks of dissolving. To avoid freeze-thawing, fresh stocks were always used. The Km of nitrocefin was determined prior to inhibition assays by performing steady state kinetics. Assays were performed using a DU800 spectrophotometer at room temperature in 50 mM HEPES pH 7.5, 15 mM NaHCO3, and 0.02% tween 20 buffer. Hydrolyzed nitrocefin was detected at 482 nm. For a single experiment, a series of at least 5 nitrocefin concentrations were tested against the given enzyme in duplicate and the initial velocities were measured and fit to the Michaelis-Menten equation. Experiments were repeated twice, and error reported is the standard error of the mean.
as §1
The activity of these derivatives was assessed using inhibition assays with purified OXA-48. Compounds were tested for the ability to inhibit OXA-48 from hydrolyzing nitrocefin, a chromogenic β-lactam substrate routinely used in β-lactamase inhibition assays. Nitrocefin contains a conjugated ring system that is readily hydrolyzed and produces a visible color shift from yellow to red upon hydrolysis (O'Callaghan, et al., 1972, Antimicrob. Agents Chemother. 1:283-288). The rate of nitrocefin hydrolysis in the presence of a constant amount of OXA-48 and increasing concentrations of a given compound of interest was monitored at 482 nm. These rates were plotted against compound concentration to determine the inhibition constant (Ki) against OXA-48. […] SPR was performed using 6×-His-OXA-48 enzyme that was amine-coupled on a Ni-NTA Chip. Meropenem, which covalently binds and inhibits OXA-48, was used as a positive control.

E. coli MG1655 = experiment: Accumulation assay in E. coli (LC-MS/MS); format: cell-based; conditions: wildtype E. coli MG1655, 10 minutes incubation
Description: For the accumulation assay, the protocol from Richter, et al., 2017, Nature 545:299-304 was followed. An overnight culture of bacteria grown in LB Lennox, was inoculated into fresh media and grown to an OD600 of 0.5-0.6. Cells were pelleted, resuspended in 1× phosphate-buffered saline (PBS) and then incubated with the compound of interest for 10 minutes at 37°. After incubation, the OD600 was recorded to note if compounds affected cell growth and then the cultures were centrifuged down through a 9:1 mixture of silicone oil (viscosity=20 cST) to high temperature silicone oil which was cooled at −80°. Cell pellets were isolated and lysed by 3 cycles of freeze-thawing using liquid nitrogen and a 65° water bath. The cell lysate was isolated from the cell debris (in water and methanol) and then analyzed via mass spectrometry. […] Multiple reaction monitoring (MRM) was used to quantify these compounds. […] The concentrations of these compounds were calculated on the basis of their corresponding standard curves.
To determine the colony forming units (CFU) per mL based on the OD600, the OD600 of E. coli MG1655 culture in LB-Lennox was measured then the culture was diluted and plated to count colonies. Based on this, the CFU per mL for 1 O.D.600 (for MG1655 cells grown in LB-Lennox) was determined to be approximately 2.15×10^8 and this value was used for accumulation calculations. […]

T1 sequence (Q2TR58 19-280): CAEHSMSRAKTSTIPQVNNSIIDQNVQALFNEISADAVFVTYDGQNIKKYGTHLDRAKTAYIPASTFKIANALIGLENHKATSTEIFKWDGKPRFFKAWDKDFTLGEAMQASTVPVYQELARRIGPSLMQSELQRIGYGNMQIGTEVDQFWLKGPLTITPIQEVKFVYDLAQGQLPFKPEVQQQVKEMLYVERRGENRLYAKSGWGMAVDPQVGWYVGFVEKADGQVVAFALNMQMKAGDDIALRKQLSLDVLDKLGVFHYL
Sequence of OXA-48 (Q6XEC0 23-265, looked up): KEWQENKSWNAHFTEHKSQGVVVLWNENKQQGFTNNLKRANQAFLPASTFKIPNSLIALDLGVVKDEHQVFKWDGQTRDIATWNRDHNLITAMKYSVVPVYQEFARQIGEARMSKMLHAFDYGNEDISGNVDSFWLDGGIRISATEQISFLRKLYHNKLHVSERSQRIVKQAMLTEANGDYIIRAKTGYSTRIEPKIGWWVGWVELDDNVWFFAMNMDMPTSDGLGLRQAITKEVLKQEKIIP

CCOc1ccccc1N1CCN(c2ncnc(N3CCC(C(=O)O)CC3)n2)CC1 [CDD-97, 1-(4-(4-(2-ethoxyphenyl)piperazin-1-yl)-1,3,5-triazin-2-yl)piperidine-4-carboxylic acid]
Ki (OXA-58): 45 ± 0.8 µM
Ki fold less potent than against OXA-48 (OXA-58; OXA-58 vs OXA-48): about 100 fold
potency/activity against OXA-48 in words (OXA-48; purified OXA-48, compared with CDD-97 where a derivative): sub-micromolar Ki
Ki (OXA-48; purified OXA-48, nitrocefin hydrolysis, Morrison fit): 0.53 ± 0.08 µM
accumulation in cells, fold lower levels compared to tetracycline (E. coli MG1655): 20 fold
